Results taken from patent US10894820B2, “Antiretroviral drug targeting human endogenous retrovirus” (priority 2014, dated 2021).

Tests used:
[1] = system: HERV-W related transcripts (env and pol mRNA); assay: HERV-W related transcripts levels by RT-qPCR in PBMC of MS patients treated with GNbAC1 (GNC002 Phase IIa trial); assay type: in vivo, human; conditions: for all HERV-W transcript levels compared to basal values at inclusion: at the 6th monthly GNbAC1 administration, relative expression to GUS B
Method: The present GNC002 Phase IIa clinical trial was performed to assess the safety profile and the pharmacokinetics of GNbAC1 at 2 and 6 mg/kg in 10 MS patients. GNC002 consisted in a 12 months longitudinal study, in which GNbAC1 is administered on a monthly basis.
The present analysis was conducted on samples collected during the first 6 months of GNC002, where HERV-W related transcripts levels were assessed by real time quantitative polymerase chain reaction (RT-qPCR) in peripheral blood mononuclear cells (PBMC) of enrolled patients. HERV-W transcripts are assessed by different primers/probe sets as follows: MSRV-env, HERV-W-UNO, HERV-W-UNO2,
Briefly, the first step consisted in the extraction of total RNA from PBMC samples. Samples were PBMC isolated from blood collected on CPT tubes and frozen in 0.5 ml of DMSO 10% in Foetal Calf Serum. After thawing, PBMC samples were washed with ice-cold PBS and total RNAs were extracted with QIAamp RNeasy Mini Kit. Then, cDNAs were prepared by retro-transcribing all mRNA contained in previously extracted total RNAs. Quantitative PCRs were conducted on these cDNAs, with addition of an internal standard used as an inter-plate calibrator (allowing the standardization of the values throughout an experiment with multiple plates). Results were expressed as the relative expression of the targeted RNA (MSRV/HERV-W), by a ratio to the expression of GUS B RNA, a reference housekeeping gene with a stable expression level in MS population.
The Relative Expression of each targeted RNA within each sample is calculated as follows: Targeted RNA Relative Expression to GUS B=2^(Cq GUS B-Cq targeted RNA) Extraction Yields and Samples Exclusion
For each patient included in the study, PBMCs were isolated from blood sample at Day 1 (inclusion), Day 2, Day 8, Day 15, and Day 29. Afterwards, patients have received 5 additional monthly GNbAC1 administrations and PBMCs were isolated from blood sample before each infusion of antibody. Thus, the following results represent the variation of each HERV-W related transcript over the first 6 months of GNC002 study.
The second GNbAC1 administration occurred at different time points from Day 1, depending on patients. Thus, the mean variation of HERV-W related transcripts was assessed with blood samples collected before each GNbAC1 administration only.

[2] = system: HERV-W Reverse-transcriptase (RT); assay: Western blot of HERV-W pol-encoded Reverse-Transcriptase protein in CH1/CH2 cell cultures treated with GNbAC1 and/or AZT; assay type: cell-based, Human; conditions: CH1 and CH2 co-culture; AZT 1 μg/ml, GNbAC1 300 μg/ml; versus mock-treated cells
Method: Human CH1 and CH2 cells (1:1) cells were co-cultured for optimizing the growth of CH2 cells and maintained in 6-well plates (CC7672-7506; CytoOne) at a density of 1.10^6 cell/well in IMDM medium (Ser. No. 12/440,053; Lifetech) supplemented with 10% fetal calf serum (Ser. No. 10/270,106; Invitrogen), 1% penicillin/streptomycin (P4333; Sigma) at 37° C. with 5% CO2. Cells were treated with i) AZT (1 μg/ml, A21-69; Sigma), ii) GNbAC1 (300 μg/ml, T950111-A; Polymun), iii) AZT+GNbAC1 or corresponding controls with GNbAC1 buffer [20 mM His, 5% Sucrose (w/v), 0.01% Tween 20 (w/v)].
CH1 and CH2 cells were resuspended in 200 μl of RIPA buffer (R0278, SIGMA) containing cOmplete® anti-phosphatase inhibitor cocktail (04 693 132001; Roche) and 0.05% LPG (326495-22-1; Avanti Polar) at 4° C., incubated for 2 hours at 26° C. on a rotating platform and centrifuged at 10000 g for 20 minutes at 26° C. Supernatant were collected and stored at −20° C.
Protein extracts were diluted (2:1) in 2× Laemmli buffer (Biorad) and heated for 5 minutes at 100° C. before loading. Proteins were separated by 7.5% sodium dodecyl sulfate-polyacrylamide gel electrophoresis (TGX, Biorad). Gels were run for a time period of 15 min at 120 mA in running buffer (Life Technologies). […] Protein of interest was detected with a colometric reaction (Opti 4-CN, Biorad), according to the provided protocol. […]

[3] = healthy volunteers, Phase 1

In the case of “GNbAC1: humanized IgG4 monoclonal antibody directed against HERV-W/MSRV Envelope protein; heavy chain SEQ ID No: 9, light chain SEQ ID No: 10”, the “all HERV-W transcript levels compared to basal values at inclusion” value ([1]; 2 mg/kg cohort, PBMC) is reported as “decrease”, the “all HERV-W transcript levels compared to basal values at inclusion” value ([1]; 6 mg/kg cohort, PBMC) is reported as “confirmed” and the “env mRNA and pol mRNA levels compared to levels before treatment” value ([1]; after three and six months of treatment) is reported as “parallel and progressive decrease”. For the same substance, the “HERV-W pol mRNA level” value ([1]; injected once a month over six months, PBMC, pol qPCR protocol) was “decrease is also marked”, the “HERV-W RT protein expression (Western blot signal)” value [2] was “minor effects” and the pharmacokinetics [3] was “linear”. The safety profile [3] was “favorable”.
